Species on record: Rattus norvegicus
Experiment: Open TG-GATES - Regimen: Single
Format: toxicity, organism-based, Sprague-Dawley
Set-up: regimen Single, gender Male, age 6 weeks
Details: in vivo, po, 100 mg/kg, route gavage, dose level Low; for APTT / Bas / Eos / Fbg / Hb / Ht / Lym / MCH / MCHC / MCV / Mono / Neu / PT / Plat / RBC / Ret / WBC: tissue Blood; for KIDNEY_L / KIDNEY_R / KIDNEY_TOTAL: tissue Kidney; for LIVER: tissue Liver; for A/G / ALP / ALT / AST / BUN / CRE / Ca / Cl / DBIL / GLC / IP / K / LDH / Na / PL / RALB / TBIL / TC / TG / TP / gamma-GTP: tissue Plasma

Compound: O=C(O)COc1nn(Cc2ccccc2)c2ccccc12 [BENDAZAC]
- TERMINAL_BW (3 h): 207.2 g
- APTT (3 h): 16.8 s
- Bas (3 h): 0%
- Eos (3 h): 1%
- Fbg (3 h): 209.6 mg/dL
- Hb (3 h): 14 g/dL
- Ht (3 h): 42.1%
- Lym (3 h): 80.8%
- MCH (3 h): 21.8 pg
- MCHC (3 h): 33.4%
- MCV (3 h): 65.2 fL
- Mono (3 h): 7.2%
- Neu (3 h): 11.6%
- PT (3 h): 11.3 s
- Plat (3 h): 131.9 x10_4/uL
- RBC (3 h): 644.8 x10_4/ul
- Ret (3 h): 9.1%
- WBC (3 h): 111.8 x10_2/uL
- KIDNEY_L (3 h): 1 g
- KIDNEY_R (3 h): 1 g
- KIDNEY_TOTAL (3 h): 1.9 g
- LIVER (3 h): 9.9 g
- A/G (3 h): 2.1
- ALP (3 h): 1620.8 IU/L
- ALT (3 h): 35.8 IU/L
- AST (3 h): 68 IU/L
- BUN (3 h): 12.8 mg/dL
- CRE (3 h): 0.6 mg/dL
- Ca (3 h): 10.9 mg/dL
- Cl (3 h): 102 meq/L
- DBIL (3 h): 0.008 mg/dL
- GLC (3 h): 196.8 mg/dL
- IP (3 h): 9.2 mg/dL
- K (3 h): 4.6 meq/L
- LDH (3 h): 93.2 IU/L
- Na (3 h): 140.2 meq/L
- PL (3 h): 130.2 mg/dL
- RALB (3 h): 3.7 g/dL
- TBIL (3 h): 1.4 mg/dL
- TC (3 h): 73.6 mg/dL
- TG (3 h): 56.2 mg/dL
- TP (3 h): 5.4 g/dL
- gamma-GTP (3 h): 1.4 IU/L
- TERMINAL_BW (6 h): 207.8 g
- APTT (6 h): 16.4 s
- Bas (6 h): 0%
- Eos (6 h): 1%
- Fbg (6 h): 202.2 mg/dL
- Hb (6 h): 13.9 g/dL
- Ht (6 h): 41.6%
- Lym (6 h): 79.4%
- MCH (6 h): 21.6 pg
- MCHC (6 h): 33.4%
- MCV (6 h): 64.9 fL
- Mono (6 h): 8.8%
- Neu (6 h): 11.2%
- PT (6 h): 12 s
- Plat (6 h): 113.2 x10_4/uL
- RBC (6 h): 641.8 x10_4/ul
- Ret (6 h): 10.5%
- WBC (6 h): 96.2 x10_2/uL
- KIDNEY_L (6 h): 1 g
- KIDNEY_R (6 h): 1 g
- KIDNEY_TOTAL (6 h): 2 g
- LIVER (6 h): 9.2 g
- A/G (6 h): 2.3
- ALP (6 h): 1175.6 IU/L
- ALT (6 h): 35.2 IU/L
- AST (6 h): 66 IU/L
- BUN (6 h): 13 mg/dL
- CRE (6 h): 0.6 mg/dL
- Ca (6 h): 10.8 mg/dL
- Cl (6 h): 103.4 meq/L
- DBIL (6 h): 0.09 mg/dL
- GLC (6 h): 183.8 mg/dL
- IP (6 h): 10.7 mg/dL
- K (6 h): 4.8 meq/L
- LDH (6 h): 90.6 IU/L
- Na (6 h): 140.2 meq/L
- PL (6 h): 126 mg/dL
- RALB (6 h): 3.7 g/dL
- TBIL (6 h): 1.2 mg/dL
- TC (6 h): 70.8 mg/dL
- TG (6 h): 41.4 mg/dL
- TP (6 h): 5.3 g/dL
- gamma-GTP (6 h): 1.8 IU/L
- TERMINAL_BW (9 h): 207.3 g
- APTT (9 h): 17 s
- Bas (9 h): 0%
- Eos (9 h): 1%
- Fbg (9 h): 218.2 mg/dL
- Hb (9 h): 13.5 g/dL
- Ht (9 h): 40.3%
- Lym (9 h): 70%
- MCH (9 h): 22 pg
- MCHC (9 h): 33.6%
- MCV (9 h): 65.4 fL
- Mono (9 h): 8.8%
- Neu (9 h): 20%
- PT (9 h): 11.7 s
- Plat (9 h): 125.1 x10_4/uL
- RBC (9 h): 617 x10_4/ul
- Ret (9 h): 8.5%
- WBC (9 h): 105.7 x10_2/uL
- KIDNEY_L (9 h): 0.9 g
- KIDNEY_R (9 h): 1 g
- KIDNEY_TOTAL (9 h): 1.9 g
- LIVER (9 h): 8.6 g
- A/G (9 h): 2.1
- ALP (9 h): 1541.8 IU/L
- ALT (9 h): 29 IU/L
- AST (9 h): 58.2 IU/L
- BUN (9 h): 11.6 mg/dL
- CRE (9 h): 0.6 mg/dL
- Ca (9 h): 10.6 mg/dL
- Cl (9 h): 104.4 meq/L
- DBIL (9 h): 0.034 mg/dL
- GLC (9 h): 189 mg/dL
- IP (9 h): 9.8 mg/dL
- K (9 h): 4.4 meq/L
- LDH (9 h): 90.2 IU/L
- Na (9 h): 142.8 meq/L
- PL (9 h): 127.2 mg/dL
- RALB (9 h): 3.8 g/dL
- TBIL (9 h): 1 mg/dL
- TC (9 h): 75.4 mg/dL
- TG (9 h): 34.2 mg/dL
- TP (9 h): 5.6 g/dL
- gamma-GTP (9 h): 1.2 IU/L
- TERMINAL_BW (24 h): 225.9 g
- APTT (24 h): 17.2 s
- Bas (24 h): 0%
- Eos (24 h): 1%
- Fbg (24 h): 209.8 mg/dL
- Hb (24 h): 13.4 g/dL
- Ht (24 h): 40.2%
- Lym (24 h): 73%
- MCH (24 h): 21.6 pg
- MCHC (24 h): 33.3%
- MCV (24 h): 64.9 fL
- Mono (24 h): 11.6%
- Neu (24 h): 14.4%
- PT (24 h): 11.8 s
- Plat (24 h): 115.2 x10_4/uL
- RBC (24 h): 619 x10_4/ul
- Ret (24 h): 7.9%
- WBC (24 h): 109.4 x10_2/uL
- KIDNEY_L (24 h): 1.1 g
- KIDNEY_R (24 h): 1.1 g
- KIDNEY_TOTAL (24 h): 2.2 g
- LIVER (24 h): 11.5 g
- A/G (24 h): 2.1
- ALP (24 h): 1133.2 IU/L
- ALT (24 h): 39.6 IU/L
- AST (24 h): 62.8 IU/L
- BUN (24 h): 16.8 mg/dL
- CRE (24 h): 0.6 mg/dL
- Ca (24 h): 11.3 mg/dL
- Cl (24 h): 104.2 meq/L
- DBIL (24 h): 0.024 mg/dL
- GLC (24 h): 204.8 mg/dL
- IP (24 h): 8 mg/dL
- K (24 h): 4.6 meq/L
- LDH (24 h): 127.8 IU/L
- Na (24 h): 141.2 meq/L
- PL (24 h): 147 mg/dL
- RALB (24 h): 3.7 g/dL
- TBIL (24 h): 0.4 mg/dL
- TC (24 h): 74.2 mg/dL
- TG (24 h): 86.4 mg/dL
- TP (24 h): 5.5 g/dL
- gamma-GTP (24 h): 1.2 IU/L
